Results on ten compounds are retold here after ChEMBL document CHEMBL1139180, “Design, synthesis, and bioactivity of novel inhibitors of E. coli aspartate transcarbamoylase” (Bioorg Med Chem Lett, 2007).

Structures are written as SMILES.

A short description of this assay: Inhibition of Escherichia coli ATCase.

Usually IC50 stands for the concentration at which inhibition is half-maximal. A higher IC50 goes with lower potency. Compound `NC(=O)CC(NC(=O)CP(=O)(O)O)C(=O)O` (stereo not given) registered an IC50 of 0.225 µM. In the case of `O=C(CP(=O)(O)O)NC(C(=O)O)C(=O)O` it was 43.5 µM; in that of `CC(O)C(NC(=O)CP(=O)(O)O)C(=O)O` (stereo not given), 42 µM. In the case of `O=C(CP(=O)(O)O)NC(CCO)C(=O)O` (stereo not given) it was 3.9 µM.

As for `NC(=O)C(CC(=O)O)NC(=O)CP(=O)(O)O` (stereo not given), the IC50 stood at 0.087 µM. The result for `O=C(CP(=O)(O)O)NC(Cc1ccc(O)cc1)C(=O)O` (stereo not given) reads 63 µM. The result for `O=C(CP(=O)(O)O)NC(CO)C(=O)O` (stereo not given) reads 30 µM. For the compound `O=C(CP(=O)(O)O)NC(CO)CO`, the IC50 is 12500 µM. Against the preceding compound, the IC50 is about 420-fold higher.

`O=C(CP(=O)(O)O)NC(CO)CCO` (stereo not given) came in with a 50% inhibitory concentration (IC50) of 2900 µM. Against the preceding compound, the IC50 is about 4.3-fold lower. In the case of `O=C(O)C[C@H](NC(=O)CP(=O)(O)O)C(=O)O` [PALA] it was 0.055 µM.
